Results published in US7138361B2, “Herbicidal heterocycles” (E. I. du Pont de Nemours and Company, priority 2000, dated 2006).

What was measured:
Assay type in all cases: in vivo
[1] = system: barnyardgrass (Echinochloa crus-galli); assay: Test B flooded paddy test; conditions: Rate 1000 g/ha, scale of 0 to 100 where 0 is no effect and 100 is complete control, visually evaluated after 13 to 15 days
Outline: (§1)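 Treatment: formulated chemical applied to flooded paddy plants at 2-leaf stage. Hold: greenhouse, 13–15 days. Scoring: visual comparison to controls, 0 (no effect) to 100 (complete control).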

[2] = system: duck salad (Heteranthera limosa); assay: Test B flooded paddy test; conditions: Rate 1000 g/ha, scale of 0 to 100 where 0 is no effect and 100 is complete control, visually evaluated after 13 to 15 days
Outline: as §1

rice (Oryza saliva) = assay: Test B flooded paddy test; conditions: Rate 1000 g/ha, scale of 0 to 100 where 0 is no effect and 100 is complete control, visually evaluated after 13 to 15 days
Outline: as §1

[3] = system: smallflower flatsedge (Cyperus difformis); assay: Test B flooded paddy test; conditions: Rate 1000 g/ha, scale of 0 to 100 where 0 is no effect and 100 is complete control, visually evaluated after 13 to 15 days
Outline: as §1

[4] = system: bermudagrass (Cynodon dactylon); assay: Test C postemergence
Outline: (§2)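 Visual 0–100 rating vs controls (0 = no effect, 100 = complete control) at 12–14 d, greenhouse. Compounds in non-phytotoxic solvent + surfactant; pre: sprayed after seeding; post: 1–4-leaf plants, 2–18 cm.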

[5] = system: lambsquarters (Chenopodium album); assay: Test C postemergence
Outline: as §2

[6] = system: duck salad (Heteranthera limosa); assay: Test C flooded paddy test; conditions: for Ducksalad plant response rating: Flooded Paddy, scale 0 to 100, 0 no effect, 100 complete control; for Plant response rating, Ducksalad / Plant response rating (scale 0 to 100), Ducksalad: flooded paddy test; for Plant response rating, Ducksalad: scale 0 to 100 (0 no effect, 100 complete control)
Outline: (§3)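 Plants were grown to the 2-leaf stage under flooded paddy conditions and treated. They were then kept in a greenhouse for 12 to 14 days and visually rated against untreated controls on a 0–100 scale, where 0 is no effect and 100 is complete control.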

[7] = system: smallflower flatsedge (Cyperus difformis); assay: Test C flooded paddy test; conditions: for Flatsedge plant response rating: Flooded Paddy, scale 0 to 100, 0 no effect, 100 complete control; for Plant response rating, Flatsedge / Plant response rating (scale 0 to 100), Flatsedge: flooded paddy test; for Plant response rating, Flatsedge: scale 0 to 100 (0 no effect, 100 complete control)
Outline: as §3

Sunflower = assay: Test C preemergence; conditions: scale 0 to 100
[8] = Rate 62 g/ha, scale 0 to 100, 0 no effect, 100 complete control
[9] = Rate 125 g/ha, scale 0 to 100, 0 no effect, 100 complete control
[10] = Rate 250 g/ha, scale 0 to 100 (0 no effect, 100 complete control)
[11] = Rate 500 g/ha, scale 0 to 100 (0 no effect, 100 complete control)
[12] = Rate 16 g/ha, visually evaluated after 12 to 14 days, 0 = no effect, 100 = complete control
[13] = under head Rate 16 g/ha, (own rate not given), after 12 to 14 days

Row | SMILES | Plant response rating, Barnyardgrass [1] | Plant response rating, Ducksalad [2] | Plant response rating, Rice (rice (Oryza saliva)) | Plant response rating, Flatsedge [3] | Plant response rating, Bermudagrass [4, 8] | Plant response rating, Bermudagrass [4, 9] | Plant response rating, Bermudagrass [4, 10] | Plant response rating, Lambsquarters [5, 9] | Plant response rating, Lambsquarters [5, 10] | Ducksalad plant response rating ([6]; Rate 250 g/ha) | Ducksalad plant response rating ([6]; Rate 500 g/ha) | Plant response rating, Ducksalad ([6]; Rate 62 g/ha) | Plant response rating, Ducksalad ([6]; Rate 125 g/ha) | Flatsedge plant response rating ([7]; Rate 250 g/ha) | Flatsedge plant response rating ([7]; Rate 500 g/ha) | Plant response rating, Flatsedge ([7]; Rate 62 g/ha) | Plant response rating, Flatsedge ([7]; Rate 125 g/ha) | Plant response rating, Sunflower (Sunflower; Rate 31 g/ha) | also measured
1 | CCC(C)c1ccn(C2SCN(c3cccc(C(F)(F)F)c3)C2=O)n1 (centres unmarked) [Compound 20] | 100 | 100 | 100 | 100 | 60 | 90 | 90 | 70 | 80 | 100 | 100 | 100 | 100 | 100 | 100 | 90 | 100 | – | –
2 | CCC(CC)c1ccn(C2SCN(c3cccc(C(F)(F)F)c3)C2=O)n1 (centres unmarked) [Compound 21] | 100 | 100 | 90 | 100 | 50 | 50 | – | 80 | – | 90 | 100 | 80 | 90 | 90 | 100 | 80 | 90 | 20 | Plant response rating, Bermudagrass ([4]; Rate 31 g/ha, scale 0 to 100): 50; Plant response rating, Lambsquarters ([5]; Rate 31 g/ha, scale 0 to 100): 70
3 | CCC(CC)c1ccn(C2SCN(c3cccc(C(F)(F)F)c3)C2=O)n1 (centres unmarked) [Compound 25] | 100 | 100 | 90 | 100 | 60 | 70 | 90 | 90 | 100 | 100 | 100 | 100 | 100 | 100 | 100 | 100 | 100 | 0 | Plant response rating, Bermudagrass [4, 11]: 90; Plant response rating, Lambsquarters [5, 11]: 100
4 | CC(C)(C)c1ccn(C2SCN(c3cccc(OC(F)(F)F)c3)C2=O)n1 (centres unmarked) [Compound 30] | 100 | 100 | 90 | 100 | 70 | 80 | 80 | 90 | 90 | 100 | 100 | 70 | 100 | 100 | 100 | 90 | 100 | – | Plant response rating, Bermudagrass [4, 11]: 90; Plant response rating, Lambsquarters [5, 11]: 90; Plant response rating (scale 0 to 100), Ducksalad [6, 12]: 50; Plant response rating (scale 0 to 100), Ducksalad [6, 13]: 0; Plant response rating (scale 0 to 100), Flatsedge [7, 12]: 90; Plant response rating (scale 0 to 100), Flatsedge [7, 13]: 90
5 | CC(C)(C)c1ccn(C2CCN(c3ccc(Cl)c(Cl)c3)C2=O)n1 (centres unmarked) [Compound 34] | 100 | 100 | 30 | 100 | – | – | – | – | – | 70 | 100 | 20 | 50 | 90 | 100 | 70 | 90 | 0 | –
6 | CC(C)(C)c1ccn(C2CCN(c3ccc(Cl)c(Br)c3)C2=O)n1 (centres unmarked) [Compound 56] | 80 | 20 | 0 | 90 | – | – | – | – | – | 0 | 0 | 0 | 0 | 90 | 90 | 80 | 80 | – | –
7 | CC(C)(C)c1ccn(C2CCN(c3cccc(SC(F)(F)F)c3)C2=O)n1 (centres unmarked) [Compound 93] | 100 | 100 | 50 | 100 | – | – | – | – | – | 100 | 100 | 0 | 90 | 100 | 100 | 0 | 100 | – | Plant response rating, Sunflower (Sunflower; Rate 62 g/ha): 0
